The values that follow come from publication PMC7066191, “Exploiting loss of heterozygosity for allele-selective colorectal cancer chemotherapy” (Nature Communications, 2020).

SMILES strings stand for the structures.

Holding throughout (test): biochemical
Design in all cases: scanMAX competition binding; kinase recovered on immobilized ligand quantified by qPCR, per cent of control
Common to all, as to settings: read-out: APA (POC)
(In general: In qPCR the cycle at which signal appears reflects the starting amount.)

The target of one test is ABL2 (Homo sapiens, UniProt P42684). The method, then: (§1) The binding affinities of APA and NAPA were evaluated in the scanMAX^sm Kinase Assay Panel (DiscoverX) at a final concentration of 10 µM. The compounds were tested for steric or allosteric binding to kinases in solution. The kinase was captured from the solution through an immobilized kinase-specific ligand and the kinase recovery was quantified. The amount of recovered kinase in the presence or absence of APA or NAPA was measured by quantitative PCR compared with the kinase capture in absence of the compound. Any compound reducing the binding affinity of a kinase to the respective immobilized ligand was scored as a potential hit, and the binding affinity of the compound toward a kinase is interpreted as the difference between the kinase recovery in the absence and presence of the compound. The inhibitory binding constants (Kd) of APA and NAPA to AURKA were evaluated in a KdELECT Kinase Assay (DiscoverX). […] Data acquisition followed the same methodology as for the scanMAX^sm Kinase Assay Panel. 6 Supplementary Figure 4. Kinome inhibition profiles of APA and its NAT2 metabolite NAPA identifies preferential APA kinase targets and differential binding to AURKA a The human kinome was assessed for binding affinity to APA and NAPA at 10 µM concentration (468 kinases in the scanMAX Kinase Assay Panel, DiscoverX). The family stratification of kinases is shown as a cladogram. Circles visualize the binding affinity of NAPA and APA towards each kinase with a higher intensity of blue corresponding to a higher binding affinity. […] One single data point from one experiment at a concentration 18.5 µM of APA was excluded as an outlier. c Thermal shift assay for human recombinant AURKA in the presence of APA and the selective inhibitor S1451. Melting temperatures were obtained by calculating the first derivative of the tryptophan fluorescence ratio at 350 nm and 330 nm and are shown for AURKA in the presence of S1451 (blue) and APA (yellow). Structural similarities between APA and kinase inhibitors[27] prompted investigation of protein kinases as mediators of APA toxicity. […] To enrich for kinase interactions that could explain the preferential killing of slow NAT2 cells, we compared the binding affinity of each kinase with APA and NAPA, selected 44 targets with preferential binding to APA and excluded kinases non-essential for cell survival and those not expressed in CRC cells (Supplementary Fig. 4A, Supplementary Table 4). […] The growth inhibition of RKO and DLD-1 following siRNA-mediated AURKA knockdown (Figs. 3c, d) reflected the relative efficiency of protein downregulation (Supplementary Fig. 5C, D). […] (Supplementary Fig. 4C). AURKA regulates cell cycle progression through association with other centrosome and spindle-associated proteins. Its activation requires auto-phosphorylation at Thr288 and ensures spindle pole integrity, centrosome duplication as well as adequate chromosomal alignment and segregation, while its inhibition leads to multipolar spindles with acentrosomal poles[28],[31]. […] S1451 reduced the fraction of pAURKA levels by >90% regardless of NAT2 expression (Fig. 3f and Su

In a further test the target is PDGFRA (Homo sapiens, UniProt P16234). The method, then: as §1
Sequence of PDGFRA (P16234 whole entry): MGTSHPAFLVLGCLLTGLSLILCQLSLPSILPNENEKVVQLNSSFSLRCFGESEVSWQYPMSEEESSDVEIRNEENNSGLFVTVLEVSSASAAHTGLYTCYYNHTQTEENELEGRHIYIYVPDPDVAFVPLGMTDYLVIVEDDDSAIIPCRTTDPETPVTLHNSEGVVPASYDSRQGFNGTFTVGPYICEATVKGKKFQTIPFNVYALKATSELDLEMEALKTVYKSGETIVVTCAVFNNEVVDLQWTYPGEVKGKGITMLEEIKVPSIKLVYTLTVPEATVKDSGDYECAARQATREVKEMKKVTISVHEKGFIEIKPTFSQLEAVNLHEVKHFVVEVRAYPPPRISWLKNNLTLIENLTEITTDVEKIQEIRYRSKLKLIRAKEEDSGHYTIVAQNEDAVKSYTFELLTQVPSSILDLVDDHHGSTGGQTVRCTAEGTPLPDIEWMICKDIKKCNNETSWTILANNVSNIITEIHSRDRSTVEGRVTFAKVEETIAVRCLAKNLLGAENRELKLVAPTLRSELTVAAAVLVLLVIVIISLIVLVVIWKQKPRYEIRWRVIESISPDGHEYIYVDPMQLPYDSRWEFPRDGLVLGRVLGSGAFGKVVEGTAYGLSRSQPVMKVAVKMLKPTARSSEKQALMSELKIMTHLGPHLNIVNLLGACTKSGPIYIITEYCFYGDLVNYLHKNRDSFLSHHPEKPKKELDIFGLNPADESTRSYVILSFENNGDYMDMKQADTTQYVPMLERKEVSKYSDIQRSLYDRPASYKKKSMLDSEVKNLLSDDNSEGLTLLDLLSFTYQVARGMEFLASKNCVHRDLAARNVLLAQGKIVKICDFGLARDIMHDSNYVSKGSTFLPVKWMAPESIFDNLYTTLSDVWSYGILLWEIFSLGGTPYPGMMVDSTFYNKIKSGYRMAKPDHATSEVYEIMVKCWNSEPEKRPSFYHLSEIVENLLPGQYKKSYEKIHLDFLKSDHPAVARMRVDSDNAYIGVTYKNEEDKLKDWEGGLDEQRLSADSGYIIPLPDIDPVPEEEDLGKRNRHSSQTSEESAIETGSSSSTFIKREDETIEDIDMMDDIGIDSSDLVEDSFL
The target in the next test is GRK4 (Homo sapiens, UniProt P32298). The method, then: as §1
A further test concerns the target MAP3K11 (Homo sapiens, UniProt Q16584). The method, then:
as §1

Another test has as its target EIF2AK4 (Homo sapiens, UniProt Q9P2K8). The method, then: as §1
Another test deals with T1, GSG2 (Homo sapiens, UniProt Q8TF76).
T1 construct: gene HASPIN
The method, then: as §1

The target of a further test is HIPK4 (Homo sapiens, UniProt Q8NE63). The method, then:
as §1

The target of a further test is FLT4 (Homo sapiens, UniProt P35916). The method, then:
as §1

For the next test, the target named is MAST1 (Homo sapiens, UniProt Q9Y2H9). The method, then:
as §1

For a further test, the target named is CLK1 (Homo sapiens, UniProt P49759). The method, then:
as §1

A further test deals with DYRK1A (Homo sapiens, UniProt Q13627). The method, then: as §1
The target of a further test is T2, ZAK (Homo sapiens, UniProt Q9NYL2).
T2 construct: gene MAP3K20
The method, then:
as §1

The target of a further test is T3, JAK3_JH1 (Homo sapiens, UniProt P52333).
T3 construct: gene JAK3; JH1 domain
The method, then: as §1

The target in the next test is MKNK1 (Homo sapiens, UniProt Q9BUB5). The method, then:
as §1

The target of a further test is CLK2 (Homo sapiens, UniProt P49760). The method, then:
as §1

Sequence of MAP3K11 (Q16584 whole entry): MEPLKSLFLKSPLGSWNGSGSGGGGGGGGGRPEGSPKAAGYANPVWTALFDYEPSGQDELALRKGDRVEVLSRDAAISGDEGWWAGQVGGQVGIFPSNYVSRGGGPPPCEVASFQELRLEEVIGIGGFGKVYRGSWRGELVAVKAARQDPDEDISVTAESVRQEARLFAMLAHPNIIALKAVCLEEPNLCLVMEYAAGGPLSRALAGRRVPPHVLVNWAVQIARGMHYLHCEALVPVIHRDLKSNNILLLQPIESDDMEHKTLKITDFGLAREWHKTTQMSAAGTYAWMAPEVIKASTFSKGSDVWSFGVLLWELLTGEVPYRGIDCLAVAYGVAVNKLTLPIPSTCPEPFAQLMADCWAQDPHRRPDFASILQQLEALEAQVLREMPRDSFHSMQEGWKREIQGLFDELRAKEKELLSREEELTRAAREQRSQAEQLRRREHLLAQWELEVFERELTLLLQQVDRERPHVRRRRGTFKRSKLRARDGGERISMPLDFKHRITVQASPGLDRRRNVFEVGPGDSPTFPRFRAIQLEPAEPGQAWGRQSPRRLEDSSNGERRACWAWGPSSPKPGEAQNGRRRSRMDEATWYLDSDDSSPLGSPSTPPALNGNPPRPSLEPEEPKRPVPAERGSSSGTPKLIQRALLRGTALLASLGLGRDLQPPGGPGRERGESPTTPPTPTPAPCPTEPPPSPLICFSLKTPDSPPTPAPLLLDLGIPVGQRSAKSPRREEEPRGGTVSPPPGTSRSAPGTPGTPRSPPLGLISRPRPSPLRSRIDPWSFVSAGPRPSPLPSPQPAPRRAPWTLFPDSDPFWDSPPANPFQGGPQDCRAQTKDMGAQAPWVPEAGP
Sequence of FLT4 (P35916 whole entry): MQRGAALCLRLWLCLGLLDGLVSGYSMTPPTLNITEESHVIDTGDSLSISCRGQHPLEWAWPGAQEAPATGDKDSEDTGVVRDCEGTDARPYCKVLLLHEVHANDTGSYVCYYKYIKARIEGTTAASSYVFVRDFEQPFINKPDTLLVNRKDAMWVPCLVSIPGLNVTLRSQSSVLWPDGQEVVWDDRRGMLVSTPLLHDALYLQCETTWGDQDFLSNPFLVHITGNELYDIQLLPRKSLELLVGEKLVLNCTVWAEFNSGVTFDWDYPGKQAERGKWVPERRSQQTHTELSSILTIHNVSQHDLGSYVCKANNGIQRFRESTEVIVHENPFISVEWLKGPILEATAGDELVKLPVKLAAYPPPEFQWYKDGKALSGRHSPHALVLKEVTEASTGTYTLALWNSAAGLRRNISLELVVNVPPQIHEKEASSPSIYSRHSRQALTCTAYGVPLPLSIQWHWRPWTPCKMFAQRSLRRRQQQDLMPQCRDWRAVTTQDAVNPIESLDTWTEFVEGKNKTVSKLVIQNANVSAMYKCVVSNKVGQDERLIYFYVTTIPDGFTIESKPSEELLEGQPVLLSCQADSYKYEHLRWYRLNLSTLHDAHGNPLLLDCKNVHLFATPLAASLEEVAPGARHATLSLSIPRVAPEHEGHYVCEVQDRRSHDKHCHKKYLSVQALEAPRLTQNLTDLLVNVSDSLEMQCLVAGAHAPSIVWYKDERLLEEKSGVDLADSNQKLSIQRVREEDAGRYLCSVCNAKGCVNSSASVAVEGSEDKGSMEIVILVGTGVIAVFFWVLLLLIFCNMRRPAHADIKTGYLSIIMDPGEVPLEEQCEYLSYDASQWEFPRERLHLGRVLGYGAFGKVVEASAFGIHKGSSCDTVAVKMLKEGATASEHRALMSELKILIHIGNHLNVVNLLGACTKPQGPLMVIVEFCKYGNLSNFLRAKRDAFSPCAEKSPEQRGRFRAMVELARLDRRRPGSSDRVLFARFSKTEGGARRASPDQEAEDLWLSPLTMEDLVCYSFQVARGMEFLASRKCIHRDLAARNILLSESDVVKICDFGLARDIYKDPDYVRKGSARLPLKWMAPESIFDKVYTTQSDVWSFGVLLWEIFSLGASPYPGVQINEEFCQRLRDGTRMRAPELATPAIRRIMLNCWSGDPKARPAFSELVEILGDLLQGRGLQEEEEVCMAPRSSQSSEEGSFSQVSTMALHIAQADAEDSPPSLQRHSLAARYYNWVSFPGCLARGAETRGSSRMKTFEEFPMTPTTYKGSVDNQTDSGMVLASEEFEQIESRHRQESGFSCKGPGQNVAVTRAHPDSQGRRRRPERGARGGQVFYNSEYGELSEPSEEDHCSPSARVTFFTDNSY
Sequence of HIPK4 (Q8NE63 whole entry): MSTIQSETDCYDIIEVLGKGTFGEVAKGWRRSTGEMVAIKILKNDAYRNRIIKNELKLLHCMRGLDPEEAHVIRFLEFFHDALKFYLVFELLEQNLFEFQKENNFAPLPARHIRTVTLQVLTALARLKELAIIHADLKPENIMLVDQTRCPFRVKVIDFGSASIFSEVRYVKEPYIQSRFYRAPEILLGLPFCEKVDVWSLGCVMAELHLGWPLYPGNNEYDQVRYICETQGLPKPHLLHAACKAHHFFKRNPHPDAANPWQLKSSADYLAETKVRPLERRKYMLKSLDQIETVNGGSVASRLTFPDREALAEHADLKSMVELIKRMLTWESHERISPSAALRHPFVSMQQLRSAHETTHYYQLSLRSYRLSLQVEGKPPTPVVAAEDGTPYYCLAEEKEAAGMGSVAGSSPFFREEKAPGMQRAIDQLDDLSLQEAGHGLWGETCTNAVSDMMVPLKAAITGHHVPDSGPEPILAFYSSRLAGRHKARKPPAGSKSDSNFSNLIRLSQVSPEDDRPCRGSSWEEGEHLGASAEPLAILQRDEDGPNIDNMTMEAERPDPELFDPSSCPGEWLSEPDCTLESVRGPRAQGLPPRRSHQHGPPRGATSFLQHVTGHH
Sequence of CLK2 (P49760 whole entry): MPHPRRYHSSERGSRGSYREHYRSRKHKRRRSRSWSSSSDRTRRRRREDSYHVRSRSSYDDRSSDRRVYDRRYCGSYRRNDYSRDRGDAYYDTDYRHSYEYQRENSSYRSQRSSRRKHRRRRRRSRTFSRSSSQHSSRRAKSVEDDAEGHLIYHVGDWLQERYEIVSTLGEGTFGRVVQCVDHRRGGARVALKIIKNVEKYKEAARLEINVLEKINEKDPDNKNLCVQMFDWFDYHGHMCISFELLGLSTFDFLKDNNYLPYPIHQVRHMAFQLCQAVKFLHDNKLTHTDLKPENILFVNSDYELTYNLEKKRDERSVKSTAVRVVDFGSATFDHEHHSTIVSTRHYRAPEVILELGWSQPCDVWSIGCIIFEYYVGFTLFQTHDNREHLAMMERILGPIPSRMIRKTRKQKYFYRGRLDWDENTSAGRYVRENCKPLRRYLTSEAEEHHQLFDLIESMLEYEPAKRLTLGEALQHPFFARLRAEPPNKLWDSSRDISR
Sequence of CLK1 (P49759 whole entry): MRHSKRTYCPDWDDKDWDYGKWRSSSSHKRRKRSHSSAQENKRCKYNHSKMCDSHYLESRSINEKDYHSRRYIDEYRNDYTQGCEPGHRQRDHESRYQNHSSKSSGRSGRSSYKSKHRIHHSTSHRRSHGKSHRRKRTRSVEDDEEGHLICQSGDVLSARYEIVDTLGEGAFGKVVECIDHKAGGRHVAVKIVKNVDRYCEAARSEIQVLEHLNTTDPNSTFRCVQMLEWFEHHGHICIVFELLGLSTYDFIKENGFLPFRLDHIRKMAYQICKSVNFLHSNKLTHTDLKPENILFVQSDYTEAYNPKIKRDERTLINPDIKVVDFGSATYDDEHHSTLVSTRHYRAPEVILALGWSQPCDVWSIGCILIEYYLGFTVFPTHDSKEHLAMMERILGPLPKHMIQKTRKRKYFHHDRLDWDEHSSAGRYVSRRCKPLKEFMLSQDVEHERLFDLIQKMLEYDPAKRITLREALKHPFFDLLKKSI

In the case of `COc1cc(Nc2cncc(-c3ccc(N)cc3)n2)cc(OC)c1OC` [APA, 6-(4-aminophenyl)-N-(3,4,5-trimethoxyphenyl)pyrazin-2-amine], the remaining binding at 10 µM on ABL2 amounted to 14%; at PDGFRA, 3.4%; at GRK4 it was 15%; at MAP3K11, 22%; on EIF2AK4, 38%; on GSG2, 6.9%. The remaining binding at 10 µM was found to be 10% on HIPK4; 35% at FLT4; 46% at MAST1; 25% on CLK1; 7.8% at DYRK1A; 22% on ZAK. Moreover, the remaining binding at 10 µM on JAK3_JH1 was determined as 19%; at MKNK1, 37%; on CLK2, 27%.
